Assay [1] has as its system CD8+ T cells. The assay can be described thus: In vitro immunogenicity: priming of CD8+ T cells with artificial APCs loaded with peptide/MHC and anti-CD28, multimer readout. As to conditions: for Wells positive [%]: HLA-A*02 restricted peptides, percentage of positive wells. It counts as cell-based, human. The text has this: In order to obtain information regarding the immunogenicity of the TUMAPs of the present invention, the inventors performed investigations using an in vitro T-cell priming assay based on repeated stimulations of CD8+ T cells with artificial antigen presenting cells (aAPCs) loaded with peptide/MHC complexes and anti-CD28 antibody.
In order to perform in vitro stimulations by artificial antigen presenting cells loaded with peptide-MHC complex (pMHC) and anti-CD28 antibody, the inventors first isolated CD8+ T cells from fresh HLA-A*02 leukapheresis products via positive selection using CD8 microbeads (Miltenyi Biotec, Bergisch-Gladbach, Germany) of healthy donors obtained from the University clinics Mannheim, Germany, after informed consent.
PBMCs and isolated CD8+ lymphocytes were incubated in T-cell medium (TCM) until use consisting of RPMI-Glutamax (Invitrogen, Karlsruhe, Germany) supplemented with 10% heat inactivated human AB serum (PAN-Biotech, Aidenbach, Germany), 100 U/ml Penicillin/100 μg/ml Streptomycin (Cambrex, Cologne, Germany), 1 mM sodium pyruvate (CC Pro, Oberdorla, Germany), 20 μg/ml Gentamycin (Cambrex). 2.5 ng/ml IL-7 (PromoCell, Heidelberg, Germany) and 10 U/ml IL-2 (Novartis Pharma, Nürnberg, Germany) were also added to the TCM at this step.
Generation of pMHC/anti-CD28 coated beads, T-cell stimulations and readout was performed in a highly defined in vitro system using four different pMHC molecules per stimulation condition and 8 different pMHC molecules per readout condition.
The purified co-stimulatory mouse IgG2a anti human CD28 Ab 9.3 (Jung et al., 1987) was chemically biotinylated using Sulfo-N-hydroxysuccinimidobiotin as recommended by the manufacturer (Perbio, Bonn, Germany). Beads used were 5.6 μm diameter streptavidin coated polystyrene particles (Bangs Laboratories, Illinois, USA).
pMHC used for positive and negative control stimulations were A*0201/MLA-001 (peptide […] (SEQ ID NO. 664) from modified Melan-A/MART-1) and A*0201/DDX5-001 ([…] from DDX5, SEQ ID NO. 665), respectively.
800.000 beads/200 μl were coated in 96-well plates in the presence of 4×12.5 ng different biotin-pMHC, washed and 600 ng biotin anti-CD28 were added subsequently in a volume of 200 μl. Stimulations were initiated in 96-well plates by co-incubating […] CD8+ T cells with 2×10^5 washed coated beads in 200 μl TCM supplemented with 5 ng/ml IL-12 (PromoCell) for 3 days at 37° C. Half of the medium was then exchanged by fresh TCM supplemented with 80 U/ml IL-2 and incubating was continued for 4 days at 37° C. This stimulation cycle was performed for a total of three times. For the pMHC multimer readout using 8 different pMHC molecules per condition, a two-dimensional combinatorial coding approach was used as previously described (Andersen et al., 2012) with minor modifications encompassing coupling to 5 different fluorochromes. Finally, multimeric analyses were performed by staining the cells with Live/dead near IR dye (Invitrogen, Karlsruhe, Germany), CD8-FITC antibody clone SK1 (BD, Heidelberg, Germany) and fluorescent pMHC multimers. For analysis, a BD LSRII SORP cytometer equipped with appropriate lasers and filters was used. Peptide specific cells were calculated as percentage of total CD8+ cells. Evaluation of multimeric analysis was done using the FlowJo software (Tree Star, Oregon, USA). In vitro priming of specific multimer+ CD8+ lymphocytes was detected by comparing to negative control stimulations.

Assay [2] deals with HLA-A*02:01 (Homo sapiens, UniProt P04439, D140Y/D185E/D98H/E176V/E277Q/G131W/G231S/I119V/I121R/I166T/I218V/L300P/L318F/N151K/N90K/P208A/P217A/Q86G/Q94H/R138H/R169H/T345S). The assay can be described thus: MHC binding assay (UV-ligand exchange, β2m ELISA, peptide exchange yield). As to conditions: MHC class I binding score; binding to HLA-A*02:01 ranged by peptide exchange yield (UV-ligand exchange, β2m ELISA). The gist of the method: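 Peptide–HLA-A*02:01 complexes were formed by UV-mediated exchange of a UV-cleavable ligand for the test peptide. Exchange yield was measured by capturing complexes on streptavidin, detecting with HRP anti-β2m antibody (1 h, 37°C) and reading TMB absorbance at 450 nm.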
On the technique in general: An ELISA detects its analyte on a solid surface through an enzyme-linked reagent.

As to “283 (ALYIGDGYVIHLA; listed as Homo sapiens) [compound 283]”, the donors result in assay [1] (HLA-A*02, percentage of positive donors) is listed as “+++ (50%-69 = +++)”. Further, in assay [1] (HLA-A*02, percentage of positive wells), the wells result is “+ (<20% = +)”. For the same substance, in assay [2], the Peptide exchange entry was ““+++” (≧50 = +++)”.

As for “319 (SLEPQIQPV; listed as Homo sapiens) [compound 319]”, in assay [1], the “Wells positive [%]” value was ““+” (<20% = +)”. The Peptide exchange entry in assay [2] is on record as ““++” (≧20% = ++)”.

As to “384 (ILFANPNIFV; listed as Homo sapiens) [compound 384]”, in assay [1], the “Wells positive [%]” value is listed as ““+” (<20% = +)”. In assay [2], the Peptide exchange result is listed as ““+++” (≧50 = +++)”.

In the case of “395 (ALALGGIAVV; listed as Homo sapiens) [compound 395]”, the “Wells positive [%]” value in assay [1] is ““+++” (50%-69% = +++)”. Further, the Peptide exchange entry in assay [2] is ““++++” (≧75% = ++++)”.

As for “443 (GLWEIENNPTV; listed as Homo sapiens) [compound 443]”, in assay [1], the “Wells positive [%]” value is recorded as ““+” (<20% = +)”. Also, the Peptide exchange result in assay [2] is reported as ““+++” (≧50 = +++)”.

Turning to “446 (QLIPALAKV; listed as Homo sapiens) [compound 446]”, the “Wells positive [%]” value in assay [1] was ““++” (20%-49% = ++)”. Besides, the Peptide exchange entry in assay [2] is given as ““+++” (≧50 = +++)”.

As to “454 (KLPPPPPQA; listed as Homo sapiens) [compound 454]”, in assay [1], the “Wells positive [%]” value was ““++” (20%-49% = ++)”. Besides, the Peptide exchange result in assay [2] is reported as ““+++” (≧50 = +++)”.

For the substance “460 (AMLEKNYKL; listed as Homo sapiens) [compound 460]”, the “Wells positive [%]” value in assay [1] was ““+” (<20% = +)”. Also, in assay [2], the Peptide exchange result is ““++++” (≧75% = ++++)”.

As to “463 (SLVESHLSDQLTL; listed as Homo sapiens) [compound 463]”, the “Wells positive [%]” value in assay [1] is recorded as ““++” (20%-49% = ++)”. Moreover, in assay [2], the Peptide exchange entry is ““+++” (≧50 = +++)”.

For “489 (KMWEELPEVV; listed as Homo sapiens) [compound 489]”, in assay [1], the “Wells positive [%]” value is ““+” (<20% = +)”. Also, the Peptide exchange result in assay [2] is recorded as ““+++” (≧50 = +++)”.

As for “499 (KIFDIDEAEEGV; listed as Homo sapiens) [compound 499]”, the “Wells positive [%]” value in assay [1] was ““+” (<20% = +)”. Besides, the Peptide exchange entry in assay [2] was ““++” (≧20% = ++)”.

For the substance “511 (FLDPYCSASV; listed as Homo sapiens) [compound 511]”, in assay [1], the “Wells positive [%]” value was ““+” (<20% = +)”. Besides, the Peptide exchange entry in assay [2] was ““++” (≧20% = ++)”.

On to “518 (KLNAEVACV; listed as Homo sapiens) [compound 518]”, for which the “Wells positive [%]” value in assay [1] is ““++” (20%-49% = ++)”. The Peptide exchange result in assay [2] is reported as ““+++” (≧50 = +++)”.

For the substance “603 (FLIEPEHVNTV; listed as Homo sapiens) [compound 603]”, in assay [1], the “Wells positive [%]” value is given as ““+” (<20% = +)”. For the same substance, the Peptide exchange result in assay [2] is ““++” (≧20% = ++)”.

The values above are taken from patent publication US20170002055A1, “Novel peptides and combination of peptides for use in immunotherapy against ovarian cancer and other cancers” (immatics biotechnologies GmbH, priority 2015, published 2017).
